One test deals with T1, human CYP11B2 (Homo sapiens, UniProt P19099).
T1 construct: expressed in transfected cells
T1 sequence (P19099 25-503): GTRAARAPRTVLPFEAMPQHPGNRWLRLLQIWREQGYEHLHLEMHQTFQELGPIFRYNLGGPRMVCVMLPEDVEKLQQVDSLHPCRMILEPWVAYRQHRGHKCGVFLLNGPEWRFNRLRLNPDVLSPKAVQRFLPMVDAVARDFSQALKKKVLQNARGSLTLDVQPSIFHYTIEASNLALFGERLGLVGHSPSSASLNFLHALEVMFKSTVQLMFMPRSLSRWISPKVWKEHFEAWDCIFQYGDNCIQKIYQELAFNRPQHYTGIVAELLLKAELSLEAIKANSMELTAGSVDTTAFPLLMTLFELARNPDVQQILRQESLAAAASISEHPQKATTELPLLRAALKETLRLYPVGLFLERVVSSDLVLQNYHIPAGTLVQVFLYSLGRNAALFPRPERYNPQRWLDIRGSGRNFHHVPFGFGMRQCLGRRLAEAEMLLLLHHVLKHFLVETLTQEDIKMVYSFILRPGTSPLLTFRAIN
Put plainly: G-402 cellular enzyme assay, human CYP11B2 (aldosterone release, HTRF). The class given is cell-based. The settings on record: G-402 cells, 1 μM Deoxycorticosterone. The text has this: (§1) Herein we identified the use of the G-402 cell line as a host cell to ectopically express (transiently or stably) enzymes of the CYP11 family. Specifically we developed stable G-402 cells expressing ectopically human CYP11B1, human CYP11B2, human CYP11A1, cynmolgus CYP11B1 or cynomolgus CYP11B2 enzyme activity. Importantly the identified cell line G-402 expresses co-factors (adrenodoxin and adrenodoxin reductase) important for the activity of the CYP11 family and no relevant enzyme activity of the CYP11 family (in comparison to H295R cells) was detected in these cells. Therefore the G-402 cell line is uniquely suited as a host cell for the ectopic expression of enzymes from the CYP11 family.
(§2) G-402 cells can be obtained from ATCC(CRL-1440) and were originally derived from a renal leiomyoblastoma.
(§3) The expression plasmids contain the ORF for either human/cyno CYP11B1 or CYP11B2 under the control of a suitable promoter (CMV-promoter) and a suitable resistance marker (neomycin). Using standard techniques the expression plasmid is transfected into G-402 cells and these cells are then selected for expressing the given resistance markers. Individual cell-clones are then selected and assessed for displaying the desired enzymatic activity using 11-Deoxycorticosterone (Cyp11B2) or 11-Deoxycortisol (Cyp11B1) as a substrate.
(§4) G-402 cells expressing CYP11 constructs were established as described above and maintained in McCoy's 5a Medium Modified, ATCC Catalog No. 30-2007 containing 10% FCS and 400 μg/ml G418 (Geneticin) at 37° C. under an atmosphere of 5% CO2/95% air.
(§5) Cellular enzyme assays were performed in DMEM/F12 medium containing 2.5% charcoal treated FCS and appropriate concentration of substrate (0.3-10 uM 11-Deoxycorticosterone, 11-Deoxycortisol or Corticosterone). For assaying enzymatic activity, cells were plated onto 96 well plates and incubated for 16 h. An aliquot of the supernatant is then transferred and analyzed for the concentration of the expected product (Aldosterone for CYP11B2; Cortisol for CYP11B1). The concentrations of these steroids can be determined using HTRF assays from CisBio analyzing either Aldosterone or Cortisol.
(§6) Inhibition of the release of produced steroids can be used as a measure of the respective enzyme inhibition by test compounds added during the cellular enzyme assay. The dose dependent inhibition of enzymatic activity by a compound is calculated by means of plotting added inhibitor concentrations (x-axes) vs. measured steroid/product level (y-axes). The inhibition is then calculated by fitting the following 4-parameter sigmoidal function (Morgan-Mercer-Flodin (MMF) model) to the raw data points using the least squares method:
(§7) [formula] wherein, A is the maximum y value, B is the EC50 factor determined using XLFit, C is the minimum y value and D is the slope value.
(§8) EC50 values for compounds claimed herein were tested with the G402-based assay system described. Cyp11B2 enzyme activity was tested in presence of 1 μM Deoxycorticosterone and variable amounts of inhibitors; Cyp11B1 enzyme activity was tested in presence of 1 μM Deoxycortisol and variable amounts of inhibitors.
(TR-FRET usually uses a lanthanide donor and a delayed reading to cut background.)

A further test addresses T2, human CYP11B1 (Homo sapiens, UniProt P15538).
T2 construct: expressed in transfected cells
T2 sequence (P15538 25-503): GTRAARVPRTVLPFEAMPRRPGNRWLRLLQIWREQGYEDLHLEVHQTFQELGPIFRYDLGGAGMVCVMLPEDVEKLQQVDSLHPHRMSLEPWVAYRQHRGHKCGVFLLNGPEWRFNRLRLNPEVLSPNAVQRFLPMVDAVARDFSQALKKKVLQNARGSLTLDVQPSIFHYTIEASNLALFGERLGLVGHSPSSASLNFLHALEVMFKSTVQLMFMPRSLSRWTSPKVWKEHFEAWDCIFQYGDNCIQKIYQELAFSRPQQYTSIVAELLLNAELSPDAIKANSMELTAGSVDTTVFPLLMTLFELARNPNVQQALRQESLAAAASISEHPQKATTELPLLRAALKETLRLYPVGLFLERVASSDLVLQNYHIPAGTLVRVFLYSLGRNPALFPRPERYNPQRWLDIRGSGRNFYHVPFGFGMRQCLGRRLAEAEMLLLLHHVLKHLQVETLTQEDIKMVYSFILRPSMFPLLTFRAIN
As to the kind of experiment: G-402 cellular enzyme assay, human CYP11B1 (cortisol release, HTRF). The format is cell-based. The settings on record: G-402 cells, 1 μM Deoxycortisol.
Source text: as §1, §2, §3, §4, §5, §6, §7, §8

For `CC1(C)c2cc(Cl)ccc2C(=O)N1c1cncc(N2CCN(S(C)(=O)=O)CC2)c1` [Example 457, 5-Chloro-2-[5-(4-methanesulfonyl-piperazin-1-yl)-pyridin-3-yl]-3,3-dimethyl-2,3-dihydroisoindol-1-one], the figures for the EC50 at human CYP11B2 and at human CYP11B1 were 1.8 nM and 298 nM, respectively.
`O=C1c2ccc(Cl)cc2CCN1c1cncc(Br)c1` [Example 7, 2-(5-Bromo-pyridin-3-yl)-6-chloro-3,4-dihydro-2H-isoquinolin-1-one]: the EC50 (in general, the concentration giving half of the maximal effect) was 77.9 nM at human CYP11B2 and 704 nM on human CYP11B1.
For the compound `CCC1c2cc(Cl)ccc2C(=O)N1c1cncc(CNS(=O)(=O)CC)c1` (single isomer, unassigned) [Example 390, Ethanesulfonic acid [5-((S or R)-5-chloro-3-ethyl-1-oxo-1,3-dihydro-isoindol-2-yl)-pyridin-3-ylmethyl]-amide], the EC50 at human CYP11B2 came out at 316 nM; on human CYP11B1, 5470 nM.
Turning to `O=C1c2ccc(Cl)cc2CCN1c1cncc(Cc2c(Cl)cccc2Cl)c1` [Example 214, 6-Chloro-2-[5-(2,6-dichloro-benzyl)-pyridin-3-yl]-3,4-dihydro-2H-isoquinolin-1-one], the EC50 on human CYP11B2 was 63.6 nM; on human CYP11B1 it was 300 nM.
With `O=C1c2ccc(Cl)cc2CN1c1cncc(N2CC[C@@H](O)C2)c1` [Example 138, 5-Chloro-2-[5-((R)-3-hydroxy-pyrrolidin-1-yl)-pyridin-3-yl]-2,3-dihydro-isoindol-1-one], the EC50 on human CYP11B2 is 16.2 nM; on human CYP11B1, 193 nM.
For the compound `CCC1c2ccc(Cl)cc2C(=O)N1c1cncc(CNS(C)(=O)=O)c1` (single isomer, unassigned) [Example 407, N-[5-((R or S)-5-Chloro-1-ethyl-3-oxo-1,3-dihydro-isoindol-2-yl)-pyridin-3-ylmethyl]-methane-sulfonamide], the EC50 was 987 nM at human CYP11B2 and 20700 nM on human CYP11B1.
As to `Cc1noc(C)c1Cc1cncc(N2CCc3cc(Cl)ccc3C2=O)c1` [Example 204, 6-Chloro-2-[5-(3,5-dimethyl-isoxazol-4-ylmethyl)-pyridin-3-yl]-3,4-dihydro-2H-isoquinolin-1-one], the EC50 came out at 40.8 nM at human CYP11B2 and 900 nM at human CYP11B1.
Consider `O=C1c2ccc(Cl)cc2CCN1c1cncc(Cc2ccc(Cl)c(Cl)c2)c1` [Example 216, 6-Chloro-2-[5-(3,4-dichloro-benzyl)-pyridin-3-yl]-3,4-dihydro-2H-isoquinolin-1-one], for which the EC50 at human CYP11B2 worked out at 38.1 nM; on human CYP11B1, 364 nM.
On to `O=C1c2ccc(Cl)cc2CCN1c1cncc(Cn2ccc3ccc(F)cc32)c1` [Example 184, 6-Chloro-2-[5-(6-fluoro-indol-1-ylmethyl)-pyridin-3-yl]-3,4-dihydro-2H-isoquinolin-1-one], for which the EC50 on human CYP11B2 was 17.7 nM; at human CYP11B1, 271 nM.
With `CC1(C)c2cc(Cl)ccc2C(=O)N1c1cncc(Cn2cccn2)c1` [Example 379, 5-Chloro-3,3-dimethyl-2-(5-pyrazol-1-ylmethyl-pyridin-3-yl)-2,3-dihydro-isoindol-1-one], the EC50 at human CYP11B2 stood at 25.8 nM; on human CYP11B1, 370 nM.
With `CC(=O)NC1CCCc2c1cncc2N1C(=O)c2ccc(Cl)cc2C1(C)C` (single isomer, unassigned) [Example 467, N—[(R or S)-4-(6-Chloro-1,1-dimethyl-3-oxo-1,3-dihydro-isoindol-2-yl)-5,6,7,8-tetrahydro-isoquinolin-8-yl]-acetamide], the results for the EC50 on human CYP11B2 and at human CYP11B1 were 28.8 nM and 2180 nM, respectively.
The like results for `CCC(=O)N[C@@H]1CCCc2c1cncc2N1C(=O)c2cc(Cl)ccc2[C@@H]1CC` (single isomer, unassigned) [Example 313, N-[(R or S)-4-((S or R)-5-Chloro-1-ethyl-3-oxo-1,3-dihydro-isoindol-2-yl)-5,6,7,8-tetrahydro-isoquinolin-8-yl]-propionamide] were, in that order, 118 nM and 3540 nM.
As to `CC(C)c1nccn1Cc1cncc(N2C(=O)c3ccc(Cl)cc3CC2C)c1` (stereo not drawn) [Example 87, 6-Chloro-2-[5-(2-isopropyl-imidazol-1-ylmethyl)-pyridin-3-yl]-3-methyl-3,4-dihydro-2H-isoquinolin-1-one], the EC50 at human CYP11B2 was 251 nM; at human CYP11B1 it was 9370 nM.
For the compound `Cc1c(-c2cncc(N3CCc4cc(Cl)ccc4C3=O)c2)ncn1C` [Example 417, 6-Chloro-2-[5-(1,5-dimethyl-1H-imidazol-4-yl)-pyridin-3-yl]-3,4-dihydro-2H-isoquinolin-1-one], the EC50 amounted to 224 nM at human CYP11B2 and 9090 nM at human CYP11B1.
Regarding `Cn1cnnc1Cc1cncc(N2CCc3cc(Cl)ccc3C2=O)c1` [Example 268, 6-Chloro-2-[5-(4-methyl-4H-[1,2,4]-triazol-3-ylmethyl)-pyridin-3-yl]-3,4-dihydro-2H-isoquinolin-1-one], the figures for the EC50 at human CYP11B2 and at human CYP11B1 were 1650 nM and 14200 nM, respectively.
For `CC(Nc1ncco1)c1cncc(N2CCc3cc(Cl)ccc3C2=O)c1` (stereo not drawn) [Example 272, 6-Chloro-2-{5-[1-(oxazol-2-ylamino)-ethyl]-pyridin-3-yl}-3,4-dihydro-2H-isoquinolin-1-one], in that order: 60.4 nM and 210 nM.
For `O=C1c2ccc(Cl)cc2CCN1c1cncc(-c2cc(F)ccc2F)c1` [Example 235, 6-Chloro-2-[5-(2,5-difluoro-phenyl)-pyridin-3-yl]-3,4-dihydro-2H-isoquinolin-1-one], in that order: 22.7 nM and 221 nM.
In the case of `O=C1c2ccc(Cl)cc2CCN1c1cnccc1CO` [Example 56, 6-Chloro-2-(4-hydroxymethyl-pyridin-3-yl)-3,4-dihydro-2H-isoquinolin-1-one; compound with trifluoro-acctic acid], the EC50 on human CYP11B2 turned out to be 297 nM; at human CYP11B1 it was 13800 nM.
In the case of `O=C1c2ccc(Cl)cc2C(Cc2ccccc2)N1c1cccnc1` (stereo not drawn) [Example 124, 3-Benzyl-5-chloro-2-pyridin-3-yl-2,3-dihydro-isoindol-1-one], the EC50 is 1070 nM at human CYP11B2 and 225 nM on human CYP11B1.
`O=C(Nc1cncc(N2CCc3cc(Cl)ccc3C2=O)c1)NC1CCCCC1` [Example 250, 1-[5-(6-Chloro-1-oxo-3,4-dihydro-1H-isoquinolin-2-yl)-pyridin-3-yl]-3-cyclohexyl-urea]: the EC50 was 4440 nM at human CYP11B2 and 12300 nM on human CYP11B1.
Take `CN1CCN(Cc2cncc(N3CCc4cc(Cl)ccc4C3=O)c2)C1=O` [Example 159, 6-Chloro-2-[5-(3-methyl-2-oxo-imidazolidin-1-ylmethyl)-pyridin-3-yl]-3,4-dihydro-2H-isoquinolin-1-one]: the EC50 turned out to be 209 nM at human CYP11B2 and 4460 nM on human CYP11B1.

Values taken from patent US9133158B2, “Bicyclic dihydroisoquinoline-1-one derivatives” (Hoffmann-La Roche Inc., priority 2011, dated 2015).
